Where “and” joins values, the source holds several entries; their conditions need not be identical. Equal entries are not always repeated.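 Five concentrations, 48 hours, 96-well plates. The concentration for 50% growth inhibition is given as GI50. TGI: concentration producing complete growth inhibition.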
Legend:
Test in all cases: DTP human tumour cell line panel, 48 h
NCI-H522 lung = system: NCI-H522 lung
SW-620 colon = system: SW-620 colon
MALME-3M melanoma = system: MALME-3M melanoma
SF-539 CNS = system: SF-539 CNS
ACHN renal = system: ACHN renal
NCI-H23 lung = system: NCI-H23 lung
SK-OV-3 ovarian = system: SK-OV-3 ovarian
HOP-62 NSCLC = system: HOP-62 NSCLC
A498 renal = system: A498 renal
K-562 leukemia = system: K-562 leukemia
RPMI-8226 leukemia = system: RPMI-8226 leukemia
U251 CNS = system: U251 CNS
EKVX NSCLC = system: EKVX NSCLC
NCI/ADR-RES ovarian = system: NCI/ADR-RES ovarian
HOP-92 NSCLC = system: HOP-92 NSCLC
HCC-2998 colon = system: HCC-2998 colon
NCI-H460 lung = system: NCI-H460 lung
CCRF-CEM leukemia = system: CCRF-CEM leukemia
SK-MEL-2 melanoma = system: SK-MEL-2 melanoma
HS 578T breast = system: HS 578T breast
786-0 renal = system: 786-0 renal
PC-3 prostate = system: PC-3 prostate
OVCAR-5 ovarian = system: OVCAR-5 ovarian
SNB-19 CNS = system: SNB-19 CNS
OVCAR-3 ovarian = system: OVCAR-3 ovarian
SN12C renal = system: SN12C renal
UACC-257 melanoma = system: UACC-257 melanoma
SF-268 CNS = system: SF-268 CNS
OVCAR-4 ovarian = system: OVCAR-4 ovarian
HL-60(TB) leukemia = system: HL-60(TB) leukemia
A549 NSCLC = system: A549 NSCLC
MCF7 breast = system: MCF7 breast
HT29 colon = system: HT29 colon
CAKI-1 renal = system: CAKI-1 renal
SF-295 CNS = system: SF-295 CNS
KM12 colon = system: KM12 colon
TK-10 renal = system: TK-10 renal
M14 melanoma = system: M14 melanoma
HCT-15 colon = system: HCT-15 colon
SNB-75 CNS = system: SNB-75 CNS
HCT-116 colon = system: HCT-116 colon
SR leukemia = system: SR leukemia
OVCAR-8 ovarian = system: OVCAR-8 ovarian
MDA-MB-435 = system: MDA-MB-435
UO-31 renal = system: UO-31 renal
MDA-N = system: MDA-N
MOLT-4 leukemia = system: MOLT-4 leukemia
NCI-H226 lung = system: NCI-H226 lung
T-47D breast = system: T-47D breast
COLO 205 colon = system: COLO 205 colon
SK-MEL-5 melanoma = system: SK-MEL-5 melanoma
BT-549 breast = system: BT-549 breast
RXF 393 renal = system: RXF 393 renal
MDA-MB-231 breast = system: MDA-MB-231 breast
IGROV1 ovarian = system: IGROV1 ovarian
DU-145 prostate = system: DU-145 prostate
SK-MEL-28 melanoma = system: SK-MEL-28 melanoma
LOX IMVI melanoma = system: LOX IMVI melanoma
UACC-62 melanoma = system: UACC-62 melanoma

With `C[C@H](CCC(=O)O)[C@H]1CC[C@H]2[C@@H]3CC[C@@H]4C[C@H](O)CC[C@]4(C)[C@H]3CC[C@]12C` the GI50 (NCI-H522 lung) was > 100 µM and 25.5 µM, the TGI (NCI-H522 lung) was > 100 µM and 54.5 µM and the GI50 (SW-620 colon) was > 100 µM and 27 µM. For the same molecule, the TGI (SW-620 colon) was > 100 µM and 78.7 µM, the GI50 (MALME-3M melanoma) was > 100 µM and 40.2 µM and the TGI (MALME-3M melanoma) was > 100 µM and 74.1 µM. The GI50 (SF-539 CNS) was > 100 µM and 27.6 µM, the TGI (SF-539 CNS) was > 100 µM and 61 µM and the GI50 (ACHN renal) was > 100 µM and 37.8 µM. For the same molecule, the TGI (ACHN renal) was > 100 µM, the GI50 (NCI-H23 lung) was > 100 µM and 17.9 µM and the TGI (NCI-H23 lung) was > 100 µM and 33.7 µM. The GI50 (SK-OV-3 ovarian) was > 100 µM and 40.3 µM, the TGI (SK-OV-3 ovarian) was > 100 µM and the GI50 (HOP-62 NSCLC) was > 100 µM and 28.2 µM. For the same molecule, the TGI (HOP-62 NSCLC) was > 100 µM and 73.8 µM, the TGI (A498 renal) was > 100 µM and the GI50 (K-562 leukemia) was > 100 µM and 17.4 µM. For the same molecule, the TGI (K-562 leukemia) was > 100 µM and 43.8 µM, the GI50 (RPMI-8226 leukemia) was > 100 µM and 22.9 µM and the TGI (RPMI-8226 leukemia) was > 100 µM and 52.7 µM. The GI50 (U251 CNS) was > 100 µM and 21.3 µM, the TGI (U251 CNS) was > 100 µM and 43.7 µM and the GI50 (EKVX NSCLC) was > 100 µM and 20 µM. The TGI (EKVX NSCLC) was > 100 µM and 69 µM, the GI50 (NCI/ADR-RES ovarian) was > 100 µM and 29.3 µM and the TGI (NCI/ADR-RES ovarian) was > 100 µM and 82.4 µM. For the same molecule, the GI50 (HOP-92 NSCLC) was > 100 µM and 34.1 µM, the TGI (HOP-92 NSCLC) was > 100 µM and 99.2 µM and the GI50 (HCC-2998 colon) was > 100 µM and 19.8 µM. For the same molecule, the TGI (HCC-2998 colon) was > 100 µM and 40.2 µM, the GI50 (NCI-H460 lung) was > 100 µM and 18.2 µM and the TGI (NCI-H460 lung) was > 100 µM and 32.3 µM. For the same molecule, the GI50 (CCRF-CEM leukemia) was > 100 µM, the TGI (CCRF-CEM leukemia) was > 100 µM and the GI50 (SK-MEL-2 melanoma) was > 100 µM and 21.5 µM. The TGI (SK-MEL-2 melanoma) was > 100 µM and 45.6 µM, the GI50 (HS 578T breast) was > 100 µM and 33.3 µM and the TGI (HS 578T breast) was > 100 µM and 65.8 µM. For the same molecule, the GI50 (786-0 renal) was > 100 µM and 31.8 µM, the TGI (786-0 renal) was > 100 µM and the GI50 (PC-3 prostate) was > 100 µM and 23.9 µM. The TGI (PC-3 prostate) was > 100 µM and 57.6 µM, the GI50 (OVCAR-5 ovarian) was > 100 µM and 20.7 µM and the TGI (OVCAR-5 ovarian) was > 100 µM and 60.3 µM. The GI50 (SNB-19 CNS) was > 100 µM and 24.3 µM, the TGI (SNB-19 CNS) was > 100 µM and 90.7 µM and the GI50 (OVCAR-3 ovarian) was > 100 µM and 19 µM. For the same molecule, the TGI (OVCAR-3 ovarian) was > 100 µM and 33.3 µM, the GI50 (SN12C renal) was > 100 µM and 20.8 µM and the TGI (SN12C renal) was > 100 µM and 56.1 µM. For the same molecule, the GI50 (UACC-257 melanoma) was > 100 µM and 28.3 µM, the TGI (UACC-257 melanoma) was > 100 µM and 67.6 µM and the GI50 (SF-268 CNS) was > 100 µM and 36 µM. The TGI (SF-268 CNS) was > 100 µM, the GI50 (OVCAR-4 ovarian) was > 100 µM and 32 µM and the TGI (OVCAR-4 ovarian) was > 100 µM and 84.5 µM. The GI50 (HL-60(TB) leukemia) was > 100 µM and 15.1 µM, the TGI (HL-60(TB) leukemia) was > 100 µM and 32.8 µM and the GI50 (A549 NSCLC) was > 100 µM and 18.4 µM. For the same molecule, the TGI (A549 NSCLC) was > 100 µM and 46.2 µM, the GI50 (MCF7 breast) was > 100 µM and 36.5 µM and the TGI (MCF7 breast) was > 100 µM. For the same molecule, the GI50 (HT29 colon) was > 100 µM and 21.6 µM, the TGI (HT29 colon) was > 100 µM and 57.7 µM and the GI50 (CAKI-1 renal) was > 100 µM and 22.2 µM. For the same molecule, the TGI (CAKI-1 renal) was > 100 µM and 47.1 µM, the GI50 (SF-295 CNS) was > 100 µM and 37.2 µM and the TGI (SF-295 CNS) was > 100 µM. The GI50 (KM12 colon) was > 100 µM and 24.4 µM, the TGI (KM12 colon) was > 100 µM and 67.2 µM and the GI50 (TK-10 renal) was > 100 µM and 33.6 µM. For the same molecule, the TGI (TK-10 renal) was > 100 µM and 83.3 µM, the GI50 (M14 melanoma) was > 100 µM and 17.3 µM and the TGI (M14 melanoma) was > 100 µM and 42 µM. The GI50 (HCT-15 colon) was > 100 µM and 23.5 µM, the TGI (HCT-15 colon) was > 100 µM and 62.3 µM and the GI50 (SNB-75 CNS) was 44.6 µM and 24.6 µM. The TGI (SNB-75 CNS) was > 100 µM and 59.4 µM, the GI50 (HCT-116 colon) was > 100 µM and 18.4 µM and the TGI (HCT-116 colon) was > 100 µM and 33.2 µM. The GI50 (SR leukemia) was > 100 µM and 14.6 µM, the TGI (SR leukemia) was > 100 µM and 32.8 µM and the GI50 (OVCAR-8 ovarian) was > 100 µM and 41.3 µM. For the same molecule, the TGI (OVCAR-8 ovarian) was > 100 µM, the GI50 (MDA-MB-435) was > 100 µM and 22.6 µM and the TGI (MDA-MB-435) was > 100 µM and 50.8 µM. For the same molecule, the GI50 (UO-31 renal) was > 100 µM and 14.3 µM, the TGI (UO-31 renal) was > 100 µM and 27.3 µM and the GI50 (MDA-N) was > 100 µM and 19.9 µM. The TGI (MDA-N) was > 100 µM and 46.3 µM, the GI50 (MOLT-4 leukemia) was > 100 µM and 21.5 µM and the TGI (MOLT-4 leukemia) was > 100 µM and 52.3 µM. For the same molecule, the GI50 (NCI-H226 lung) was > 100 µM and 37 µM, the TGI (NCI-H226 lung) was > 100 µM and the GI50 (T-47D breast) was > 100 µM and 19.9 µM. For the same molecule, the TGI (T-47D breast) was > 100 µM and 46.1 µM, the GI50 (COLO 205 colon) was > 100 µM and 25.5 µM and the TGI (COLO 205 colon) was > 100 µM and 54.6 µM. For the same molecule, the GI50 (SK-MEL-5 melanoma) was > 100 µM and 18.3 µM, the TGI (SK-MEL-5 melanoma) was > 100 µM and 35.3 µM and the GI50 (BT-549 breast) was > 100 µM and 28.4 µM. For the same molecule, the TGI (BT-549 breast) was > 100 µM and 74.7 µM, the GI50 (RXF 393 renal) was > 100 µM and 26 µM and the TGI (RXF 393 renal) was > 100 µM and 62.4 µM. The GI50 (MDA-MB-231 breast) was > 100 µM and 28.3 µM, the TGI (MDA-MB-231 breast) was > 100 µM and 73.2 µM and the GI50 (IGROV1 ovarian) was > 100 µM and 40 µM. For the same molecule, the TGI (IGROV1 ovarian) was > 100 µM, the GI50 (DU-145 prostate) was 86.7 µM and 30 µM and the TGI (DU-145 prostate) was > 100 µM and 87.7 µM. For the same molecule, the GI50 (SK-MEL-28 melanoma) was > 100 µM and 27 µM, the TGI (SK-MEL-28 melanoma) was > 100 µM and 85.3 µM and the GI50 (LOX IMVI melanoma) was > 100 µM and 28.9 µM. For the same molecule, the TGI (LOX IMVI melanoma) was > 100 µM and 80.3 µM, the GI50 (UACC-62 melanoma) was > 100 µM and 35.3 µM and the TGI (UACC-62 melanoma) was > 100 µM.

Source: PubChem BioAssay (NCI)
